Assay results taken from US20210283091A1, “DECREASING IMMUNE ACTIVITY THROUGH MODULATION OF POSTCELLULAR SIGNALING FACTORS” (FLAGSHIP PIONEERING INNOVATIONS V, INC., priority 2018, published 2021).

Key:
[1] = tested on: Caki-1 renal cell carcinoma cells; assay: Viability of Caki-1 renal cell carcinoma cells treated with ferroptosis inducer, with or without Ferrostatin-1; type: cell-based
[2] = tested on: NFKB; assay: NFKB reporter activity in THP1-Dual monocytes co-cultured with treated Caki-1 cells; type: cell-based, human
Experimental: Caki-1 renal cell carcinoma cells were treated with either control (DMSO) or various doses of Erastin, for 24 hours prior to co-culture with THP1-Dual cells for an additional 24 hours. Erastin was purchased from Selleckchem (Houston, Tex.) and dissolved in DMSO. Subsequently, the THP1 supernatants were assessed for NFKB or IRF reporter activity. Caki-1 cells were acquired from ATCC and THP1-Dual cells acquired from InvivoGen (San Diego, Calif.). Both cell types were cultured in 96-well plates for the duration of the assay. 7.500 Caki-1 cells were plated 24 hours prior to dosing with Erastin, with a final DMSO concentration of 0.5%. 24 hours post-treatment, THP1-Dual cells (25,000 cells/well) were added to the Caki-1 cells. 24 hours later, 30 μl of supernatant was mixed with either 200 μl QuantiBlue (InvivoGen) or 50 μl QuantiLuc and absorbance or luminescence was recorded on a Molecular Devices plate reader. Caki-1 renal cell carcinoma cells were treated with either control (DMSO) or various doses of RSL3, for 24 hours prior to co-culture with THP1-Dual cells for an additional 24 hours. RSL3 was purchased from Selleckchem and dissolved in DMSO. Subsequently, the THP1 supernatants were assessed for NFKB or IRF reporter activity. Caki-1 cells were acquired from ATCC and THP1-Dual cells acquired from InvivoGen (San Diego, Calif.). Both cell types were cultured in 96-well plates for the duration of the assay. 7.500 Caki-1 cells were plated 24 hours prior to dosing with […], with a final DMSO concentration of 0.5%. 24 hours post-treatment, THP1-Dual cells (25,000 cells/well) were added to the Caki-1 cells. 24 hours later, 30 μl of supernatant was mixed with either 200 μl QuantiBlue (InvivoGen, San Diego, Calif.) or 50 μl QuantiFuc and absorbance or luminescence was recorded on a Molecular Devices plate reader. […] Subsequently, the THP1 supernatant was assessed for NFKB reporter activity. […]

[3] = tested on: A20 B-cell leukemia cells; assay: Viability of A20 cells treated with GPX4 inhibitor, with or without Ferrostatin-1; type: cell-based; conditions: for viability of A20 cells: various doses, 24 hours treatment
[4] = tested on: NFKB; assay: NFKB reporter activity in THP1-Dual monocytes co-cultured with treated A20 cells; type: cell-based, human; conditions: for NFKB signaling in THP1 monocytes: A20 cells treated 24 hours, then co-culture with THP1-Dual cells 24 hours
Experimental: A20 B-cell leukemia cells were treated with either control (DMSO) or various doses of RSL3, for 24 hours prior to co-culture with THP1-Dual cells for an additional 24 hours. RSL3 was purchased from Selleckchem (Houston, Tex.) and dissolved in DMSO. Subsequently, the THP1 supernatants were assessed for NFKB or IRF reporter activity.
A20 cells were acquired from ATCC and THP1-Dual cells acquired from InvivoGen (San Diego, Calif.). Both cell types were cultured in 96-well plates for the duration of the assay. 50,000 A20 cells were plated 24 hours prior to dosing with RSL3, with a final DMSO concentration of 0.5%. 24 hours post-treatment, THP1-Dual cells (25,000 cells/well) were added to the A20 cells. 24 hours later, 30 μl of supernatant was mixed with either 200 μl QuantiBlue (InvivoGen, San Diego, Calif.) or 50 μl QuantiLuc and absorbance or luminescence was recorded on a Molecular Devices plate reader.
A20 lymphoma cells were treated with various doses (e.g. 0.002, 0.005, 0.014, 0.041, 0.123, 0.370, 1.111, 3.333 and 10 μM) of a GPX4 inhibitor (RSL3, ML162 or ML210) in the presence or absence of 1 μM Ferrostatin-1 for 24 hours. ML162 was purchased from Cayman Chemical Company Inc and resuspended in DMSO. ML210 was purchased from Sigma-Aldrich and resuspended in DMSO. A20 lymphoma cells were also treated with DMSO as a negative control. After treatment with DMSO or a GPX4 inhibitor for 24 hours, the A20 lymphoma cells were co-cultured with THP1-Dual cells for an additional 24 hours. Subsequently, the THP1 supernatant was assessed for NFKB reporter activity. A20 cells were acquired from ATCC and THP1-Dual cells were acquired from InvivoGen (San Diego, Calif.). Both cell types were cultured in 96-well plates for the duration of the assay.

[5] = tested on: C57/B6 mice; assay: Dextran sodium sulfate colitis in mice; type: in vivo; conditions: 10 mg/kg, i.p., 3-4% dextran sodium sulfate 5 days, compared to vehicle
Experimental: C57/B6 mice are treated with vehicle or Ferrostatin (10 mg/kg, i.p) before the induction of colitis by administration of 3-4% dextran sodium sulfate in the drinking water for 5 days. An anti-inflammatory effect of ferrostatin compared to vehicle is confirmed by […], decreased diarrhea, and decreased weight loss. In addition, inhibition of neutrophil recruitment (innate immune response) by ferrostatin in confirmed by decreased myeloperoxidase activity in the colon (compared to vehicle).

[6] = tested on: HT1080 fibrosarcoma cells; assay: Viability of HT1080 fibrosarcoma cells treated with ferroptosis inducer, with or without ferroptosis inhibitor or siRNA; type: cell-based; conditions: various doses, 24 hours treatment
[7] = tested on: NFKB; assay: NFKB reporter activity in THP1-Dual monocytes co-cultured with treated HT1080 cells; type: cell-based, human; conditions: HT1080 cells treated 24 hours, then co-culture with THP1-Dual cells 24 hours
Experimental: HT1080 fibrosarcoma cells were treated with either control (DMSO) or various doses of Erastin, piperazine erastin (PE), or imidazole ketoerastin (IKE) for 24 hours prior to co-culture with THP1-Dual cells for an additional 24 hours. Erastin was purchased from Selleckchem (Houston, Tex.) and dissolved in DMSO. Subsequently, the THP1 supernatants were assessed for nuclear factor kappa-light-chain-enhancer of activated B cells (NFKB) or interferon regulatory factor (IRF) reporter activity.
HT1080 cells were acquired from ATCC and THP1-Dual cells were acquired from InvivoGen (San Diego, Calif.). […] 24 hours later, 30 μl of supernatant was mixed with either 200 μl QuantiBlue (InvivoGen, San Diego, Calif.) (for NFKB reporter activity) or 50 μl QuantiLuc (for IRF reporter activity) and absorbance or luminescence was recorded on a Molecular Devices plate reader.
HT1080 fibrosarcoma cells were treated with various doses of Erastin (e.g. 0.8, 0.16, 0.31, 0.63, 1.25, 2.5, 5, 10 or 20 μM) alone or in combination with a ferroptosis inhibitor (1 μM Ferrostatin-1, 1 μM Liproxstatin-1, 100 μM Trolox, 25 μM β-Mercaptoethanol or 100 μM Deferoxamine) for 24 hours prior to co-culture with THP1-Dual cells for an additional 24 hours. […] Subsequently, the THP1 supernatant was assessed for NFKB activity. […]

Structure (SMILES): CCOC(=O)c1ccc(NC2CCCCC2)c(N)c1 [Ferrostatin-1]
- effect on viability of Caki-1 renal carcinoma cells decreased by GPX4 inhibitor (RSL3 or ML162) ([1]; 1 μM Ferrostatin, 24 hours): attenuated
- effect on NFKB activity in THP1 cells increased by RSL3- or ML162-treated Caki-1 cells ([2]; 1 μM Ferrostatin): attenuated
- effect on viability of A20 lymphoma cells decreased by GPX4 inhibitor (RSL3, ML162 or ML210) ([3]; 1 μM Ferrostatin-1, 24 hours): attenuated
- effect on NFKB activity in THP1 cells increased by GPX4 inhibitor-treated A20 lymphoma cells ([4]; 1 μM Ferrostatin-1): attenuated
- colon length [5]: decreased
- diarrhea [5]: decreased
- myeloperoxidase activity in the colon [5]: decreased
- weight loss [5]: decreased

Structure (SMILES): CC(C)Oc1ccc(C(=O)Cn2ccnc2)cc1-n1c(CN2CCN(C(=O)COc3ccc(Cl)cc3)CC2)nc2ccccc2c1=O [IKE, imidazole ketoerastin]
- viability of HT1080 cells [6]: negatively affected the viability
- NFKB signaling in THP1 monocytes [7]: elicited NFKB signaling

Structure (SMILES): COc1ccc(N(C(=O)CCl)C(C(=O)NCCc2ccccc2)c2cccs2)cc1Cl (stereo not drawn) [ML162]
- viability of Caki-1 cells ([1]; various doses, 24 hours treatment): decreased viability of the cells in a dose dependent manner
- NFKB signaling in THP1 monocytes ([2]; Caki-1 cells treated 24 hours, then co-culture with THP1-Dual cells 24 hours): increased NFKB activity in THP1 cells in a dose dependent manner
- viability of A20 cells [3]: decreased viability of the cells in a dose dependent manner
- NFKB signaling in THP1 monocytes [4]: increased NFKB activity in THP1 cells in a dose dependent manner

Structure (SMILES): Cc1onc(C(=O)N2CCN(C(c3ccc(Cl)cc3)c3ccc(Cl)cc3)CC2)c1[N+](=O)[O-] [ML210]
- viability of A20 cells [3]: decreased viability of the cells in a dose dependent manner
- NFKB signaling in THP1 monocytes [4]: increased NFKB activity in THP1 cells in a dose dependent manner

Structure (SMILES): CC(C)Oc1ccc(CN2CCNCC2)cc1-n1c(CN2CCN(C(=O)COc3ccc(Cl)cc3)CC2)nc2ccccc2c1=O [PE, piperazine erastin]
- viability of HT1080 cells [6]: negatively affected the viability
- NFKB signaling in THP1 monocytes [7]: elicited NFKB signaling
